Data published in patent US9216986B1, “Quinoline derivatives as PDE10A enzyme inhibitors” (H. Lundbeck A/S, priority 2011, dated 2015).

Molecular target: PDE10A enzyme (Homo sapiens (Human), UniProt Q9Y233)
Experiment: PDE10A inhibition assay
Format: biochemical
Settings: tritium labeled cAMP 5 nM
Method: Active PDE10A enzyme is prepared in a number of ways for use in PDE assays (Loughney, K. et al. Gene 1999, 234, 109-117; Fujishige, K. et al. Eur J Biochem. 1999, 266, 1118-1127 and Soderling, S. et al. Proc. Natl. Acad. Sci. 1999, 96, 7071-7076). PDE10A can be expressed as full-length proteins or as truncated proteins, as long as they express the catalytic domain. PDE10A can be prepared in different cell types, for example insect cells or E. coli. An example of a method to obtain catalytically active PDE10A is as follows: The catalytic domain of human PDE10A (amino acids 440-779 from the sequence with accession number NP 006652) is amplified from total human brain total RNA by standard RT-PCR and is cloned into the BamH1 and Xho1 sites of the pET28a vector (Novagen). Expression in coli is performed according to standard protocols. Briefly, the expression plasmids are transformed into the BL21(DE3) E. coli strain, and 50 mL cultures inoculated with the cells allowed to grow to an OD600 of 0.4-0.6 before protein expression is induced with 0.5 mM IPTG. Following induction, the cells are incubated overnight at room temperature, after which the cells are collected by centrifugation. Cells expressing PDE10A are resuspended in 12 mL (50 mM TRIS-HCl-pH8.0, 1 mM MgCl2 and protease inhibitors). The cells are lysed by sonication, and after all cells are lysed, TritonX100 is added according to Novagen protocols.
A PDE10A assay may for example, be performed as follows: The assay is performed in 60 uL samples containing a fixed amount of the relevant PDE enzyme (sufficient to convert 20-25% of the cyclic nucleotide substrate), a buffer (50 mM HEPES7.6; 10 mM MgCl2; 0.02% Tween20), 0.1 mg/ml BSA, 225 pCi of ^3H-labelled cyclic nucleotide substrate, tritium labeled cAMP to a final concentration of 5 nM and varying amounts of inhibitors. Reactions are initiated by addition of the cyclic nucleotide substrate, and reactions are allowed to proceed for one hr at room temperature before being terminated through mixing with 15 uL 8 mg/mL yttrium silicate SPA beads (Amersham). The beads are allowed to settle for one hr in the dark before the plates are counted in a Wallac 1450 Microbeta counter. The measured signal can be converted to activity relative to an uninhibited control (100%) and IC50 values can be calculated using the XIfit extension to EXCEL.

Chain of PDE10A enzyme (Q9Y233 716-1055): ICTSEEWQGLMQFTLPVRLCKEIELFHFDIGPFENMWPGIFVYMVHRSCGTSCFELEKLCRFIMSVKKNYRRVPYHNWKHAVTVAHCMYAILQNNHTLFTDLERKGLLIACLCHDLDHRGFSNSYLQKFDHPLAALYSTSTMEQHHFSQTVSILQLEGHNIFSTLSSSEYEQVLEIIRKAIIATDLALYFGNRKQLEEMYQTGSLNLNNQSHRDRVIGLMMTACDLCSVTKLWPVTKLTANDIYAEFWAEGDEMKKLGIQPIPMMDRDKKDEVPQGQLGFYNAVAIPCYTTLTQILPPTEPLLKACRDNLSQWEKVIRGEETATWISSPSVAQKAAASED

Row | IC50 | Structure (SMILES)
1 | 170 nM | COc1ccc2nc(CCc3nc4nc(C)cc(C)n4n3)ccc2c1 [2-[2-(5,7-Dimethyl-[1,2,4]triazolo[1,5-a]pyrimidin-2-yl)-ethyl]-6-methoxy-quinoline]
2 | 14 nM | COc1cc(CCc2nc3c(C)ncc(C)n3n2)nc2ccc(F)cc12 [2-[2-(5,8-Dimethyl-[1,2,4]triazolo[1,5-a]pyrazin-2-yl)-ethyl]-6-fluoro-4-methoxy-quinoline]
3 | 52 nM | Cc1ncc(C)n2nc(CCc3ccc4ccc(Cl)cc4n3)nc12 [7-Chloro-2-[2-(5,8-dimethyl-[1,2,4]triazolo[1,5-a]pyrazin-2-yl)-ethyl]-quinoline]
4 | 26 nM | COc1cc(CCc2nc3c(C)ncc(C)n3n2)nc2cc(F)ccc12 [2-[2-(5,8-Dimethyl-[1,2,4]triazolo[1,5-a]pyrazin-2-yl)-ethyl]-7-fluoro-4-methoxy-quinoline]
5 | 310 nM | Cc1cc(C)n2cc(CCc3ccc4ccccc4n3)nc2n1 [2-[2-(5,7-Dimethyl-imidazo[1,2-a]pyrimidin-2-yl)-ethyl]-quinoline]
6 | 24 nM | Cc1ccc(C)n2nc(CCc3ccc4ccccc4n3)nc12 [2-[2-(5,8-Dimethyl-[1,2,4]triazolo[1,5-a]pyridin-2-yl)-ethyl]-quinoline]
7 | 13 nM | Cc1ncc(C)n2nc(CCc3ccc4cc5c(cc4n3)OCO5)nc12 [6-[2-(5,8-Dimethyl-[1,2,4]triazolo[1,5-a]pyrazin-2-yl)-ethyl]-[1,3]dioxolo[4,5-g]quinoline]
8 | 140 nM | Cc1cc(CCc2nc3cccc(C)n3n2)nc2ccccc12 [4-Methyl-2-[2-(5-methyl-[1,2,4]triazolo[1,5-a]pyridin-2-yl)-ethyl]-quinoline]
9 | 550 nM | Cc1ncc(C)n2nc(/C=C/c3ccc4ccc(C(F)(F)F)cc4n3)nc12 [2-[(E)-2-(5,8-Dimethyl-[1,2,4]triazolo[1,5-a]pyrazin-2-yl)-vinyl]-7-trifluoromethyl-quinoline]
10 | 85 nM | Cc1ccc(O)c2nc(CCc3ccc4cc(F)ccc4n3)nn12 [2-[2-(6-Fluoro-quinolin-2-yl)-ethyl]-5-methyl-[1,2,4]triazolo[1,5-a]pyridin-8-ol]
11 | 61 nM | Cc1cnc(C)n2nc(CCc3ccc4cc(C(C)C)ccc4n3)nc12 [2-[2-(5,8-Dimethyl-[1,2,4]triazolo[1,5-c]pyrimidin-2-yl)-ethyl]-6-isopropyl-quinoline]
12 | 270 nM | COc1ccc(C)n2nc(/C=C/c3cc(Cl)c4cccc(F)c4n3)nc12 [4-Chloro-8-fluoro-2-[(E)-2-(8-methoxy-5-methyl-[1,2,4]triazolo[1,5-a]pyridin-2-yl)-vinyl]-quinoline]
13 | 190 nM | Cc1ncc(C)n2nc(/C=C/c3ccc4cc(F)ccc4n3)nc12 [2-[(E)-2-(5,8-Dimethyl-[1,2,4]triazolo[1,5-a]pyrazin-2-yl)-vinyl]-6-fluoro-quinoline]
14 | 490 nM | Cc1ncc(C)n2nc(/C=C/c3ccc4cc(C(F)(F)F)ccc4n3)nc12 [2-[(E)-2-(5,8-Dimethyl-[1,2,4]triazolo[1,5-a]pyrazin-2-yl)-vinyl]-6-trifluoromethyl-quinoline]
15 | 2100 nM | Cc1ncc(C)n2nc(/C=C/c3ccc4cc(C#N)ccc4n3)nc12 [2-[(E)-2-(5,8-Dimethyl-[1,2,4]triazolo[1,5-a]pyrazin-2-yl)-vinyl]-6-cyano-quinoline]
16 | 150 nM | COc1ccc(C)n2nc(CCc3ccc4cccc(F)c4n3)nc12 [8-Fluoro-2-[2-(8-methoxy-5-methyl-[1,2,4]triazolo[1,5-a]pyridin-2-yl)-ethyl]-quinoline]
17 | 28 nM | Cc1ncc(C)n2nc(CCc3cc(F)c4ccccc4n3)nc12 [2-[2-(5,8-Dimethyl-[1,2,4]triazolo[1,5-a]pyrazin-2-yl)-ethyl]-4-fluoro-quinoline]
18 | 2000 nM | Cc1cc(F)cc2ccc(CCc3nc4c(C)ncc(C)n4n3)nc12 [2-[2-(5,8-Dimethyl-[1,2,4]triazolo[1,5-a]pyrazin-2-yl)-ethyl]-6-fluoro-8-methyl-quinoline]
19 | 410 nM | Cc1ncc(C)n2nc(CCc3cc(O)c4cc(F)ccc4n3)nc12 [2-[2-(5,8-Dimethyl-[1,2,4]triazolo[1,5-a]pyrazin-2-yl)-ethyl]-6-fluoro-quinolin-4-ol]
20 | 190 nM | COc1cc(CCc2nc3cccc(C)n3n2)nc2ccccc12 [4-Methoxy-2-[2-(5-methyl-[1,2,4]triazolo[1,5-a]pyridin-2-yl)-ethyl]-quinoline]

Row | IC50 | Structure (SMILES)
21 | 13 nM | COc1ccc2ccc(/C=C/c3nc4c(C)ncc(C)n4n3)nc2c1 [2-[(E)-2-(5,8-Dimethyl-[1,2,4]triazolo[1,5-a]pyrazin-2-yl)-vinyl]-7-methoxy-quinoline]
22 | 110 nM | Cc1ncc(C)n2nc(CCc3ccc4c(F)cc(F)cc4n3)nc12 [2-[2-(5,8-Dimethyl-[1,2,4]triazolo[1,5-a]pyrazin-2-yl)-ethyl]-5,7-difluoro-quinoline]
23 | 34 nM | COc1ccc(C)n2nc(CCc3ccc4cc(F)ccc4n3)nc12 [6-Fluoro-2-[2-(8-methoxy-5-methyl-[1,2,4]triazolo[1,5-a]pyridin-2-yl)-ethyl]-quinoline]
24 | 240 nM | Cc1ncc(C)n2nc(CCc3ccc4cc(Cl)cc(F)c4n3)nc12 [6-Chloro-2-[2-(5,8-dimethyl-[1,2,4]triazolo[1,5-a]pyrazin-2-yl)-ethyl]-8-fluoro-quinoline]
25 | 59 nM | Cc1ncc(C)n2nc(CCc3ccc4cc(C#N)c(Cl)cc4n3)nc12 [7-Chloro-2-[2-(5,8-dimethyl-[1,2,4]triazolo[1,5-a]pyrazin-2-yl)-ethyl]-quinoline-6-carbonitrile]
26 | 19 nM | COc1cccc2nc(/C=C/c3nc4c(C)ncc(C)n4n3)ccc12 [2-[(E)-2-(5,8-Dimethyl-[1,2,4]triazolo[1,5-a]pyrazin-2-yl)-vinyl]-5-methoxy-quinoline]
27 | 300 nM | Cc1ncc(C)n2nc(CCc3ccc4cc(F)cc(F)c4n3)nc12 [2-[2-(5,8-Dimethyl-[1,2,4]triazolo[1,5-a]pyrazin-2-yl)-ethyl]-6,8-difluoro-quinoline]
28 | 12 nM | COc1ccc(C)n2nc(CCc3ccc4ccccc4n3)nc12 [2-[2-(8-Methoxy-5-methyl-[1,2,4]triazolo[1,5-a]pyridin-2-yl)-ethyl]-quinoline]
29 | 120 nM | Cc1ncc(C)n2nc(CCc3ccc4c(F)cccc4n3)nc12 [2-[2-(5,8-Dimethyl-[1,2,4]triazolo[1,5-a]pyrazin-2-yl)-ethyl]-5-fluoro-quinoline]
30 | 39 nM | Cc1ncc(C)n2nc(CCc3ccc4c(Cl)cc(Cl)cc4n3)nc12 [5,7-Dichloro-2-[2-(5,8-dimethyl-[1,2,4]triazolo[1,5-a]pyrazin-2-yl)-ethyl]-quinoline]
31 | 19 nM | Cc1ncc(C)n2nc(CCc3ccc4ccccc4n3)nc12 [2-[2-(5,8-Dimethyl-[1,2,4]triazolo[1,5-a]pyrazin-2-yl)-ethyl]-quinoline]
32 | 360 nM | Cc1ncc(C)n2nc(CCc3ccc4c(F)c(F)cc(F)c4n3)nc12 [2-[2-(5,8-Dimethyl-[1,2,4]triazolo[1,5-a]pyrazin-2-yl)-ethyl]-5,6,8-trifluoro-quinoline]
33 | 18 nM | Cc1cc(CCc2nc3c(C)ncc(C)n3n2)nc2ccccc12 [2-[2-(5,8-Dimethyl-[1,2,4]triazolo[1,5-a]pyrazin-2-yl)-ethyl]-4-methyl-quinoline]
34 | 240 nM | Cc1ncc(C)n2nc(CCc3ccc4ccc(C(F)(F)F)cc4n3)nc12 [2-[2-(5,8-Dimethyl-[1,2,4]triazolo[1,5-a]pyrazin-2-yl)-ethyl]-7-trifluoromethyl-quinoline]
35 | 8.8 nM | Cc1cc2nc(CCc3nc4c(C)ncc(C)n4n3)ccc2cc1F [2-[2-(5,8-Dimethyl-[1,2,4]triazolo[1,5-a]pyrazin-2-yl)-ethyl]-6-fluoro-7-methyl-quinoline]
36 | 15 nM | Cc1ncc(C)n2nc(CCc3ccc4ccc(F)cc4n3)nc12 [2-[2-(5,8-Dimethyl-[1,2,4]triazolo[1,5-a]pyrazin-2-yl)-ethyl]-7-fluoro-quinoline]
37 | 520 nM | Cc1ncc(C)n2nc(CCc3ccc4cc5c(cc4n3)OC(F)(F)O5)nc12 [6-[2-(5,8-Dimethyl-[1,2,4]triazolo[1,5-a]pyrazin-2-yl)-ethyl]-2,2-difluoro-[1,3]dioxolo[4,5-g]quinoline]
38 | 72 nM | Cc1cc(C)n2nc(CCc3ccc4ccccc4n3)nc2n1 [2-[2-(5,7-Dimethyl-[1,2,4]triazolo[1,5-a]pyrimidin-2-yl)-ethyl]-quinoline]
39 | 320 nM | Cc1cc(C)n2cc(/C=C/c3ccc4ccccc4n3)nc2n1 [2-[(E)-2-(5,7-Dimethyl-imidazo[1,2-a]pyrimidin-2-yl)-vinyl]-quinoline]
